Reference: paper PMC11239673, “Structural basis for the bi-specificity of USP25 and USP28 inhibitors” (EMBO Reports, 2024)
Where a chain is given by its changes, count along the chain named. Where “and” joins values, the source holds several entries; their conditions need not be identical. Equal values may be shown once. Read-outs that look alike come from different tables or passages of the source.

Tests used:
Type in all cases: biochemical
USP28Δtip WT = target: T1, USP28Δtip WT (Homo sapiens, UniProt Q96RU2, INS458SGSG); assay: Ub-Rho110 dose–response assay, USP28Δtip wt
T1 sequence (Q96RU2 with tags, fused parts or gaps INS458SGSG): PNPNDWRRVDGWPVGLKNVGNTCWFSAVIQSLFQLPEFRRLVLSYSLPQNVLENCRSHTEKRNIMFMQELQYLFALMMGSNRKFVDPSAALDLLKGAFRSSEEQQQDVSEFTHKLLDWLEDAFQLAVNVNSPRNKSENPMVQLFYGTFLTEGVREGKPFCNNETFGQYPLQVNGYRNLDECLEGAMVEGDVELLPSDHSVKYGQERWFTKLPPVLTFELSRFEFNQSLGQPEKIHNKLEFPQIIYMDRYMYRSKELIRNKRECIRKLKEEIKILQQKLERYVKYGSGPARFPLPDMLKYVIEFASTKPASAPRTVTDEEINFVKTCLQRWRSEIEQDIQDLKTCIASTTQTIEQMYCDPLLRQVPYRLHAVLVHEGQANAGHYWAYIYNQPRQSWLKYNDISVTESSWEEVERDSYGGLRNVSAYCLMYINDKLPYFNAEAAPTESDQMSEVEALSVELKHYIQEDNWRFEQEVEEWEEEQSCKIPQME

USP28Δtip H261A = target: T2, USP28Δtip H261A (Homo sapiens, UniProt Q96RU2, H261A/INS458SGSG); assay: Ub-Rho110 dose–response assay, USP28Δtip H261A; settings: for IC50: USP28 - H261A
T2 sequence (Q96RU2 with tags, fused parts or gaps H261A/INS458SGSG): T1 sequence (Q96RU2 with tags, fused parts or gaps INS458SGSG)

USP25Δtip D272S = target: T3, USP25Δtip D272S (Homo sapiens, UniProt Q9UHP3, D272S/DEL465-537/INS464GSGSGS); assay: Ub-Rho110 dose–response assay, USP25Δtip D272S
T3 construct: 6xHis or thioredoxin-6xHis (N, cleaved yes); made in house; host or cells: E. coli BL21star (DE3)
T3 sequence (Q9UHP3 with tags, fused parts or gaps D272S/DEL465-477/P478G/DEL482-535/A536G/P537S limits assumed): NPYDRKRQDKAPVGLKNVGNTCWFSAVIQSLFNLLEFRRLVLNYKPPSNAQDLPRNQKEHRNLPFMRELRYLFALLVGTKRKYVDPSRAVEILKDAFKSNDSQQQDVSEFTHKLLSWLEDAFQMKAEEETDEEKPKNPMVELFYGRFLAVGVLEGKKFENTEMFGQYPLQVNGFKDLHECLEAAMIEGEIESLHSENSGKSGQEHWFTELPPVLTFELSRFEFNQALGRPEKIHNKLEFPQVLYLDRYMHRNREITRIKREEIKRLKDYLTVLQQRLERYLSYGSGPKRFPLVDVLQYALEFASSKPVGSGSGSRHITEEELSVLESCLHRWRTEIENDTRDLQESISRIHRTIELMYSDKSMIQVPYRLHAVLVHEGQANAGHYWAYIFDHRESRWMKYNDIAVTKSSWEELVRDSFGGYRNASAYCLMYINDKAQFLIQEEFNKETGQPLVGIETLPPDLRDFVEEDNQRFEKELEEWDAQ

USP25Δtip E373Q = target: T4, USP25Δtip E373Q (Homo sapiens, UniProt Q9UHP3, DEL465-537/E373Q/INS464GSGSGS); assay: Ub-Rho110 dose–response assay, USP25Δtip E373Q
T4 construct: 6xHis or thioredoxin-6xHis (N, cleaved yes); made in house; host or cells: E. coli BL21star (DE3)
T4 sequence (Q9UHP3 with tags, fused parts or gaps E373Q/DEL465-477/P478G/DEL482-535/A536G/P537S limits assumed): T3 sequence (Q9UHP3 with tags, fused parts or gaps D272S/DEL465-477/P478G/DEL482-535/A536G/P537S limits assumed) with S116D, E217Q

[1] = read-out: relative inhibition [%] - USP28 - WT
[2] = read-out: relative inhibition [%] - USP28 - H261A

Cc1ccc2c(N)c(C(=O)NC3CCc4cc(N5CC6CCC(C5)N6)ccc4C3)sc2n1 (stereo not drawn) [FT206]
IC50 (USP28Δtip WT; USP28 - WT, single replicates, read-out: IC50 of each replicate curve (unlabelled line above mean and SD)): 184 nM and 209 nM and 213 nM and 88.9 nM and 91.1 nM and 101 nM
IC50 (USP28Δtip WT; USP28Δtip 20 nM, Ub-Rho110 250 nM, 15 min preincubation, average ± SD, n ≥ 5, read-out: IC50, USP28 variants, WT): 150 ± 60 nM
inhibition at 11.11 µM (USP28Δtip WT; [1]): 98.6%
inhibition at 33.33 µM (USP28Δtip WT; [1]): 99.3%
inhibition at 100 µM (USP28Δtip WT; [1]): 99.6%
inhibition at […] (USP28Δtip WT; [1]): 97.5% and 91.4% and 73.1%
t-test vs. USP28 WT control - H261A (USP28Δtip H261A): 1.437E-02
IC50 (USP28Δtip H261A; mean of replicates, read-out: IC50, mean and SD): 1370 nM
IC50 (USP28Δtip H261A; single replicates, read-out: IC50 of each replicate curve (unlabelled line above mean and SD)): 2480 nM and 1420 nM and 1160 nM and 1020 nM and 771 nM
inhibition at 11.11 µM (USP28Δtip H261A; [2]): 80.8%
inhibition at 33.33 µM (USP28Δtip H261A; [2]): 98.5%
inhibition at 100 µM (USP28Δtip H261A; [2]): 107%
inhibition at […] (USP28Δtip H261A; [2]): 74.8%
t-test vs. USP25 WT control - D272S (USP25Δtip D272S; p value, inhibitor IC50 on USP25 D272S compared with USP25 WT): 3.650E-02
inhibition at 33.33 µM (USP25Δtip D272S; read-out: relative inhibition [%] - USP25 - D272S, inhibitor 33.33 µM, single replicates): 87.3%
inhibition at 100 µM (USP25Δtip D272S; read-out: relative inhibition [%] - USP25 - D272S, inhibitor 100.00 µM, single replicates): 95.2%
t-test vs. USP25 WT control - E373Q (USP25Δtip E373Q; p value, inhibitor IC50 on USP25 E373Q compared with USP25 WT): 8.243E-06
inhibition at 100 µM (USP25Δtip E373Q; read-out: relative inhibition [%] - USP25 - E373Q, inhibitor 100.00 µM, single replicates): 48.3%
